Results: PubChem BioAssay AID2060492 (Molecular Pharmacology Branch, DTP, NCI, 2025)

Test system: 695427-040-R-J1-PDC complex spheroids, viability percent T/C
Test: Anticancer human tumor 695427-040-R-J1-PDC patient-derived colon adenocarcinoma cell line growth inhibition [GQUAD]
Details: for IC50: curve of first compound; for viability, T/C: stronger effect = lower value
Procedure, shortened: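 Viability of tumor cells grown as complex spheroids with endothelial and stromal cells, exposed to drug combinations. Top concentration at or near clinical Cmax (else 10 microM), diluted in half-log increments.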

[1] = second compound 0.0316 µM, first compound 0.0316 µM
[2] = second compound 0.0316 µM, first compound 0.1 µM
[3] = second compound 0.0316 µM, first compound 0.316 µM
[4] = second compound 0.0316 µM, first compound 1 µM
[5] = second compound 0.0316 µM, first compound 3.16 µM
[6] = second compound 0.0316 µM, first compound 10 µM
[7] = second compound 0.1 µM, first compound 0.0316 µM
[8] = second compound 0.1 µM, first compound 0.1 µM
[9] = second compound 0.1 µM, first compound 0.316 µM
[10] = second compound 0.1 µM, first compound 1 µM
[11] = second compound 0.1 µM, first compound 3.16 µM
[12] = second compound 0.1 µM, first compound 10 µM
[13] = second compound 0.316 µM, first compound 0.0316 µM
[14] = second compound 0.316 µM, first compound 0.1 µM
[15] = second compound 0.316 µM, first compound 0.316 µM
[16] = second compound 0.316 µM, first compound 1 µM
[17] = second compound 0.316 µM, first compound 3.16 µM
[18] = second compound 0.316 µM, first compound 10 µM
[19] = second compound 1 µM, first compound 0.0316 µM
[20] = second compound 1 µM, first compound 0.1 µM
[21] = second compound 1 µM, first compound 0.316 µM
[22] = second compound 1 µM, first compound 1 µM
[23] = second compound 1 µM, first compound 3.16 µM
[24] = second compound 1 µM, first compound 10 µM
[25] = second compound 3.16 µM, first compound 0.0316 µM
[26] = second compound 3.16 µM, first compound 0.1 µM
[27] = second compound 3.16 µM, first compound 0.316 µM
[28] = second compound 3.16 µM, first compound 1 µM
[29] = second compound 3.16 µM, first compound 3.16 µM
[30] = second compound 3.16 µM, first compound 10 µM
[31] = second compound 10 µM, first compound 0.0316 µM
[32] = second compound 10 µM, first compound 0.1 µM
[33] = second compound 10 µM, first compound 0.316 µM
[34] = second compound 10 µM, first compound 1 µM
[35] = second compound 10 µM, first compound 3.16 µM
[36] = second compound 10 µM, first compound 10 µM
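Further: spheroids exposed to compounds for seven days before readout.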

C=CC(=O)N1CCN(c2nc(=O)n(-c3c(C)ccnc3C(C)C)c3nc(-c4c(O)cccc4F)c(F)cc23)C(C)C1 (stereo not drawn) + Cc1cnc(CNC(=O)c2c(=O)c3ccc(N4CCCN(C)CC4)nc3n3c2sc2ccccc23)cn1
IC50 (second compound 0.0316 µM): > 10 µM
IC50 (second compound 0.1 µM): > 10 µM
IC50 (second compound 0.316 µM): > 10 µM
IC50 (second compound 1 µM): > 10 µM
IC50 (second compound 3.16 µM): < 0.0316 µM
IC50 (second compound 10 µM): < 0.0316 µM
viability, T/C [1]: 103%
viability, T/C [2]: 77%
viability, T/C [3]: 95.1%
viability, T/C [4]: 68.5%
viability, T/C [5]: 75.7%
viability, T/C [6]: 71.6%
viability, T/C [7]: 89.2%
viability, T/C [8]: 81.7%
viability, T/C [9]: 82.3%
viability, T/C [10]: 67.7%
viability, T/C [11]: 102%
viability, T/C [12]: 90.9%
viability, T/C [13]: 85.7%
viability, T/C [14]: 78.7%
viability, T/C [15]: 70.5%
viability, T/C [16]: 73.9%
viability, T/C [17]: 92.6%
viability, T/C [18]: 83.8%
viability, T/C [19]: 67.6%
viability, T/C [20]: 59.4%
viability, T/C [21]: 60%
viability, T/C [22]: 65.1%
viability, T/C [23]: 77.6%
viability, T/C [24]: 79.7%
viability, T/C [25]: 37.7%
viability, T/C [26]: 50.9%
viability, T/C [27]: 54.2%
viability, T/C [28]: 54.4%
viability, T/C [29]: 64.1%
viability, T/C [30]: 57.5%
viability, T/C [31]: 34.2%
viability, T/C [32]: 41.6%
viability, T/C [33]: 44.5%
viability, T/C [34]: 44.7%
viability, T/C [35]: 58.6%
viability, T/C [36]: 49.7%

CC(C)n1c(=O)n(C)c2cnc3cc(F)c(-c4ccc(OCCCN5CCCCC5)nc4)cc3c21 + Cc1cnc(CNC(=O)c2c(=O)c3ccc(N4CCCN(C)CC4)nc3n3c2sc2ccccc23)cn1
IC50 (second compound 0.0316 µM): > 10 µM
IC50 (second compound 0.1 µM): > 10 µM
IC50 (second compound 0.316 µM): > 10 µM
IC50 (second compound 1 µM): 7.26 µM
IC50 (second compound 3.16 µM): 2.61 µM
IC50 (second compound 10 µM): < 0.0316 µM
viability, T/C [1]: 80.7%
viability, T/C [2]: 80.8%
viability, T/C [3]: 88%
viability, T/C [4]: 80.9%
viability, T/C [5]: 84.6%
viability, T/C [6]: 56%
viability, T/C [7]: 87.1%
viability, T/C [8]: 76.8%
viability, T/C [9]: 91.7%
viability, T/C [10]: 66.3%
viability, T/C [11]: 84.6%
viability, T/C [12]: 51.5%
viability, T/C [13]: 89%
viability, T/C [14]: 49.6%
viability, T/C [15]: 75.8%
viability, T/C [16]: 71.6%
viability, T/C [17]: 85.4%
viability, T/C [18]: 56.3%
viability, T/C [19]: 90%
viability, T/C [20]: 64.4%
viability, T/C [21]: 69.9%
viability, T/C [22]: 68.6%
viability, T/C [23]: 73.5%
viability, T/C [24]: 41.1%
viability, T/C [25]: 51.5%
viability, T/C [26]: 47.4%
viability, T/C [27]: 57.8%
viability, T/C [28]: 54.6%
viability, T/C [29]: 49%
viability, T/C [30]: 20.4%
viability, T/C [31]: 43.5%
viability, T/C [32]: 40.3%
viability, T/C [33]: 45.8%
viability, T/C [34]: 42.6%
viability, T/C [35]: 43.1%
viability, T/C [36]: 0.95%

Cc1cccc(N(C)C(=O)C2C(O)CCN2c2nc(C)cc(C(F)(F)F)c2C#N)c1 (stereo not drawn) + Cc1cnc(CNC(=O)c2c(=O)c3ccc(N4CCCN(C)CC4)nc3n3c2sc2ccccc23)cn1
IC50 (second compound 0.0316 µM): > 10 µM
IC50 (second compound 0.1 µM): > 10 µM
IC50 (second compound 0.316 µM): > 10 µM
IC50 (second compound 1 µM): > 10 µM
IC50 (second compound 3.16 µM): < 0.0316 µM
IC50 (second compound 10 µM): < 0.0316 µM
viability, T/C [1]: 110%
viability, T/C [2]: 92.5%
viability, T/C [3]: 76.6%
viability, T/C [4]: 78.7%
viability, T/C [5]: 87.5%
viability, T/C [6]: 62.9%
viability, T/C [7]: 87%
viability, T/C [8]: 80%
viability, T/C [9]: 102%
viability, T/C [10]: 71%
viability, T/C [11]: 87.9%
viability, T/C [12]: 79.1%
viability, T/C [13]: 72.5%
viability, T/C [14]: 78.4%
viability, T/C [15]: 51.4%
viability, T/C [16]: 74.7%
viability, T/C [17]: 77.5%
viability, T/C [18]: 69.9%
viability, T/C [19]: 62.1%
viability, T/C [20]: 57.7%
viability, T/C [21]: 57.8%
viability, T/C [22]: 56.9%
viability, T/C [23]: 83%
viability, T/C [24]: 60.7%
viability, T/C [25]: 38.8%
viability, T/C [26]: 47%
viability, T/C [27]: 54.8%
viability, T/C [28]: 51.2%
viability, T/C [29]: 67.8%
viability, T/C [30]: 50.9%
viability, T/C [31]: 32.1%
viability, T/C [32]: 40%
viability, T/C [33]: 46.6%
viability, T/C [34]: 47.1%
viability, T/C [35]: 59.5%
viability, T/C [36]: 42.5%

O=C(c1cc(Cc2n[nH]c(=O)c3ccccc23)ccc1F)N1CCN(C(=O)C2CC2)CC1 + Cc1cnc(CNC(=O)c2c(=O)c3ccc(N4CCCN(C)CC4)nc3n3c2sc2ccccc23)cn1
IC50 (second compound 0.0316 µM): > 10 µM
IC50 (second compound 0.1 µM): > 10 µM
IC50 (second compound 0.316 µM): > 10 µM
IC50 (second compound 1 µM): > 10 µM
IC50 (second compound 3.16 µM): > 10 µM
IC50 (second compound 10 µM): < 0.0316 µM
viability, T/C [1]: 94.2%
viability, T/C [2]: 101%
viability, T/C [3]: 93.5%
viability, T/C [4]: 77.7%
viability, T/C [5]: 83.5%
viability, T/C [6]: 90.9%
viability, T/C [7]: 102%
viability, T/C [8]: 79%
viability, T/C [9]: 95.5%
viability, T/C [10]: 57%
viability, T/C [11]: 92.7%
viability, T/C [12]: 87.3%
viability, T/C [13]: 95.4%
viability, T/C [14]: 63%
viability, T/C [15]: 91.9%
viability, T/C [16]: 74.7%
viability, T/C [17]: 86.8%
viability, T/C [18]: 80.8%
viability, T/C [19]: 60.3%
viability, T/C [20]: 69.6%
viability, T/C [21]: 53.8%
viability, T/C [22]: 57.4%
viability, T/C [23]: 71%
viability, T/C [24]: 66.2%
viability, T/C [25]: 52.9%
viability, T/C [26]: 53.3%
viability, T/C [27]: 53.5%
viability, T/C [28]: 46.6%
viability, T/C [29]: 62.6%
viability, T/C [30]: 51.1%
viability, T/C [31]: 32.1%
viability, T/C [32]: 53.5%
viability, T/C [33]: 49.9%
viability, T/C [34]: 48%
viability, T/C [35]: 48.1%
viability, T/C [36]: 40.2%
